Laboratory results reported in PubChem BioAssay (NCI).
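How tested: cells in 96-well plates exposed to compound for 48 hours at five concentrations. GI50 marks 50% less growth. TGI: concentration producing complete growth inhibition.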

Assays:
Experiment in all cases: NCI-60 cell line screen, 48 h
SR leukemia = system: SR leukemia
KM12 colon = system: KM12 colon
TK-10 renal = system: TK-10 renal
U251 CNS = system: U251 CNS
NCI-H460 lung = system: NCI-H460 lung
BT-549 breast = system: BT-549 breast
COLO 205 colon = system: COLO 205 colon
HCC-2998 colon = system: HCC-2998 colon
NCI/ADR-RES ovarian = system: NCI/ADR-RES ovarian
HT29 colon = system: HT29 colon

Structure (SMILES) | TGI (SR leukemia) | GI50 (KM12 colon) | TGI (KM12 colon) | GI50 (TK-10 renal) | TGI (TK-10 renal) | GI50 (U251 CNS) | TGI (U251 CNS) | GI50 (NCI-H460 lung) | TGI (NCI-H460 lung) | GI50 (BT-549 breast) | TGI (BT-549 breast) | GI50 (COLO 205 colon) | TGI (COLO 205 colon) | GI50 (HCC-2998 colon) | TGI (HCC-2998 colon) | GI50 (NCI/ADR-RES ovarian) | TGI (NCI/ADR-RES ovarian) | GI50 (HT29 colon) | TGI (HT29 colon) | GI50 (SR leukemia)
O=c1n(CC2CO2)c(=O)n(CC2CO2)n1CC1CO1 (stereo not drawn) | > 100 µM | 31.5 µM | > 100 µM | 27.9 µM | > 100 µM | 10.9 µM | > 100 µM | 416 nM | 30.8 µM | 27.8 µM | > 100 µM | 6040 nM | 41.5 µM | 2.17 µM | 37.7 µM | 19.5 µM | > 100 µM | 19.3 µM | > 100 µM | 
Nc1cc2nc3ccccc3sc-2cc1=O | > 100 µM | 10.8 µM | 30.6 µM | 5.72 µM | 16.2 µM | 3.63 µM | 15.1 µM | 2900 nM | 10.2 µM | 1.61 µM | 3.32 µM | 2160 nM | 4.61 µM | 3.95 µM | 13.3 µM | 2.96 µM | 16.7 µM | 2.92 µM | 6.86 µM | 4270 nM
O=C1c2ccccc2C(=O)c2sc(Nc3cccc(Cl)c3)nc21 | 5.47 µM |  | 4.1 µM |  | 5.39 µM |  | 2.97 µM |  | 4.25 µM | 1.67 µM | 3.04 µM |  | 7.68 µM |  | 5.3 µM | 2.01 µM | 4.78 µM |  | 8.36 µM | 
CCCCCCCC(=O)SCC/C=C/[C@@H]1CC(=O)NCc2cccc(n2)C2=N[C@@](C)(CS2)C(=O)N[C@@H](C(C)C)C(=O)N1 | > 33.3 µM | 1.21 µM | > 33.3 µM | 1.09 µM | 24.8 µM | 0.889 µM | 8.16 µM | 532 nM | > 33.3 µM | 5.04 µM | > 33.3 µM | 468 nM | 1.62 µM | 1.02 µM | 7.48 µM | 31.7 µM | > 33.3 µM | 0.181 µM | 7.23 µM | 498 nM
Fc1ccc(Nc2ncnc3ccc(-c4cnc5[nH]ccc5c4)cc23)cc1Cl | > 100 µM | 4.71 µM | > 100 µM | 0.292 µM | 13.8 µM | 2.17 µM | 6.2 µM | 1830 nM | 4.06 µM | 3.11 µM | > 27.9 µM | 3580 nM | 46.3 µM | 4.87 µM | > 100 µM | 2.98 µM | > 87.8 µM | 2.05 µM | > 25.1 µM | 2680 nM
COC(=O)Nc1nc2ccc(S(=O)c3ccccc3)cc2[nH]1 (stereo not drawn) | > 100 µM | 4.48 µM | > 100 µM | 12.4 µM | > 100 µM | 4.45 µM | > 100 µM | 4170 nM | > 100 µM | 3.98 µM | > 100 µM | 2510 nM | 7.78 µM | 10.5 µM | > 100 µM | 3.81 µM | > 100 µM | 3.46 µM | 54.1 µM | 2250 nM
CC1=C(C#N)C23C(=O)c4ccccc4C(O)=C2C(=O)C=CC3(O)N1Cc1ccccc1 (stereo not drawn) | > 100 µM | 42.4 µM | > 100 µM | 36.9 µM | > 100 µM | 42 µM | > 100 µM | 30300 nM | > 100 µM | 36.2 µM | > 100 µM | 16600 nM | 34.4 µM | > 100 µM | > 100 µM | 2.84 µM | 30.6 µM | 43.7 µM | > 100 µM | 33700 nM
CCCCCCCCSC1=CC(=O)c2nc3ccccc3c3ccnc1c23 | > 100 µM | > 100 µM | > 100 µM | > 100 µM | > 100 µM | 92.6 µM | > 100 µM | 26300 nM | > 100 µM | > 100 µM | > 100 µM | > 100000 nM | > 100 µM | > 100 µM | > 100 µM | 97.4 µM | > 100 µM | > 100 µM | > 100 µM | 22700 nM
O=C(NCCNc1nccc(-c2c(-c3cccc(O)c3)nc3sccn23)n1)c1ccccc1O | > 56.7 µM | 4.41 µM | 15.7 µM | 6.17 µM | 30.3 µM | 4.9 µM | > 47.6 µM | 4160 nM | 19.6 µM | 4.74 µM | 34.9 µM | 5320 nM | 23.4 µM | 5.67 µM | 22.5 µM | 6.64 µM | 70.1 µM | 3.61 µM | 20.7 µM | 3710 nM
C=C(CNCCO)[C@@H]1CC[C@]2(CO)CC[C@]3(C)[C@H](CC[C@@H]4[C@@]5(C)CCC(N)C(C)(C)[C@@H]5CC[C@]43C)[C@@H]12 (stereo partly drawn) | 5.22 µM | 3.4 µM | 10.1 µM | 2.54 µM | 7.07 µM | 1.55 µM | 2.89 µM | 1940 nM | 4.12 µM | 2.07 µM | 4.9 µM | 1730 nM | 3.35 µM | 1.98 µM | 3.81 µM | 17 µM | 33.8 µM | 1.86 µM | 3.89 µM | 1900 nM
Cc1ccc(-c2nnc(-c3ccc4ccccc4c3)o2)cc1 | > 68.4 µM |  | > 100 µM |  | > 60.6 µM |  | > 100 µM |  | > 100 µM |  | > 93.5 µM |  | > 100 µM |  | > 100 µM |  | > 79.2 µM |  | > 100 µM | 
O=C(Nc1ccc(I)cc1)c1cc([N+](=O)[O-])ccc1O | 46.5 µM | 5.36 µM | 40.9 µM | 9.9 µM | > 100 µM | 6.4 µM | 66.1 µM | 6420 nM | 56.8 µM | 5.36 µM | 27.1 µM | 10900 nM | 28.1 µM | 3.82 µM | 84 µM | 5.85 µM | > 100 µM | 13.3 µM | 89.7 µM | 6090 nM
CCOC(=O)Nc1nc2ccc(OCC)cc2s1 | > 100 µM | 3.31 µM | > 100 µM | > 100 µM | > 100 µM | 25.5 µM | > 100 µM | 6280 nM | > 100 µM | > 100 µM | > 100 µM | 10400 nM | > 100 µM | 31.6 µM | > 100 µM | 7.39 µM | > 100 µM | 3.98 µM | > 100 µM | 1120 nM
NC1CCC(Nc2nc(NCc3ccc(-c4ccco4)nc3)c3ncn(C4CCCC4)c3n2)CC1 (stereo not drawn) | 0.19 µM | 0.0107 µM | 0.086 µM | 0.16 µM | 12.8 µM | 0.0344 µM | 12.6 µM | 46.9 nM | 11.3 µM | 0.0264 µM | 0.0746 µM | 14.3 nM | 0.0314 µM | 0.0316 µM | 0.627 µM |  | 1.39 µM | 0.00801 µM |  | 34.9 nM
CNC(=O)c1ccccc1Nc1nc(Nc2ccc(N3CCOCC3)cc2OC)ncc1Cl | 3.25 µM | 0.298 µM | 8.52 µM | 0.197 µM | 2.01 µM | 1.94 µM | > 47.8 µM | 361 nM | > 34.4 µM | 2.58 µM | > 39.1 µM | 103 nM | 0.59 µM | 0.636 µM | > 43.2 µM | 1.11 µM | > 50.7 µM | 0.0714 µM | 4.73 µM | 25.1 nM
CN(C)c1ccc(-c2cc(-c3ccc(Nc4nc(Nc5ccc(Cl)cc5)nc(Nc5ccc(Cl)cc5)n4)cc3)no2)cc1 | 1.74 µM | 4.11 µM | 25.3 µM | 16.3 µM | > 100 µM | 6.27 µM | 61.8 µM | 3030 nM | 12.3 µM | 9.07 µM | 48.9 µM | 2890 nM | 16 µM | 7.37 µM | 96.7 µM | 5.38 µM | 88.6 µM | 5.08 µM | 66.5 µM | 
COc1cc2nc(C)nc(N[C@H](C)c3cc(N)cc(C(F)(F)F)c3)c2cc1O[C@H]1CCOC1 | 29.2 µM | 14.9 µM | 30 µM | 2.9 µM | 20.6 µM | 10.6 µM | 23.7 µM | 18500 nM | 36.6 µM | 11.5 µM | 24.2 µM | 15800 nM | 33.4 µM | 17 µM | 33.2 µM | 18.3 µM | 60.9 µM | 13.4 µM | 28.4 µM | 2250 nM
CCOc1ccccc1-n1c(CN2CCN(C(=O)COc3ccc(CNCCCCCCN4C5CCCC4CC(OC(=O)Nc4cc(C)ccc4OC)C5)cc3)CC2)nc2ccccc2c1=O (stereo not drawn) | 1.59 µM | 1.66 µM | 3.27 µM | 1.72 µM | 3.14 µM | 0.61 µM | 1.2 µM | 806 nM | 1.94 µM | 1.72 µM | 3.26 µM | 1780 nM | 3.69 µM | 1.57 µM | 3.15 µM | 7.04 µM | 19.6 µM | 0.798 µM | 2.05 µM | 656 nM
O=C(CN1CCN(c2cc3c(cc2F)c(=O)c(C(=O)N/N=C/c2ccccc2O)cn3C2CC2)CC1)N/N=C\c1ccccc1O | > 100 µM | 0.462 µM | > 100 µM | 0.77 µM | > 100 µM | 0.367 µM | > 100 µM | 367 nM | > 48.7 µM | 1.51 µM | > 100 µM | 371 nM | > 100 µM | 0.615 µM | > 100 µM | 0.91 µM | > 100 µM | 1.01 µM | > 100 µM | 304 nM
